According to publication PMC8863381 (Journal of Enzyme Inhibition and Medicinal Chemistry, 2022):
Read-outs that look alike come from different tables or passages of the source.

What was measured:
[1] = target: hCA I (Homo sapiens, UniProt P00915); experiment: stopped flow CO2 hydrase assay, hCA I; type: biochemical
[2] = target: hCA II (Homo sapiens, UniProt P00918); experiment: stopped flow CO2 hydrase assay, hCA II; type: biochemical
[3] = target: hCA IX (Homo sapiens, UniProt Q16790); experiment: biochemical; conditions: for Selectivity ratio I/IX: KI hCA I / KI hCA IX; for Selectivity ratio II/IX: KI hCA II / KI hCA IX
[4] = target: hCA XII (Homo sapiens, UniProt O43570); experiment: stopped flow CO2 hydrase assay, hCA XII; type: biochemical; conditions: for Selectivity ratio I/XII: KI hCA I / KI hCA XII; for Selectivity ratio II/XII: KI hCA II / KI hCA XII
[5] = tested on: MCF-7 breast cancer cell line; experiment: SRB cell viability assay, MCF-7; type: cell-based, human; conditions: for IC50: Homo sapiens, MCF7, 72 h, read-out: IC50 MCF-7; for Selectivity index MCF-7: normal HSF versus MCF-7
[6] = tested on: A549 lung cancer cells; experiment: SRB cell viability assay, A549; type: cell-based, human; conditions: for IC50: Homo sapiens, A549, 72 h, read-out: IC50 A549; for Selectivity index A549: normal HSF versus A549
[7] = tested on: normal human skin fibroblast cell line HSF; experiment: SRB cell viability assay, HSF normal cells; type: cell-based; conditions: 72 h, read-out: IC50 HSF
[8] = read-out: KI hCA I, 15 min preincubation, mean from 3 different assays
[9] = read-out: KI hCA II, 15 min preincubation, mean from 3 different assays
[10] = log of KI in nM, compounds of this paper
[11] = read-out: KI hCA IX, 15 min preincubation, mean from 3 different assays
[12] = read-out: KI hCA XII, 15 min preincubation, mean from 3 different assays
[13] = KI hCA IX, 15 min preincubation, mean from 3 different assays
[14] = log KI hCA IX (experimental), log of KI in nM, compounds of this paper
[15] = KI hCA XII, 15 min preincubation, mean from 3 different assays
[16] = Log KI hCA XII (experimental), log of KI in nM, compounds of this paper

hCA XII, sequence (O43570 25-354): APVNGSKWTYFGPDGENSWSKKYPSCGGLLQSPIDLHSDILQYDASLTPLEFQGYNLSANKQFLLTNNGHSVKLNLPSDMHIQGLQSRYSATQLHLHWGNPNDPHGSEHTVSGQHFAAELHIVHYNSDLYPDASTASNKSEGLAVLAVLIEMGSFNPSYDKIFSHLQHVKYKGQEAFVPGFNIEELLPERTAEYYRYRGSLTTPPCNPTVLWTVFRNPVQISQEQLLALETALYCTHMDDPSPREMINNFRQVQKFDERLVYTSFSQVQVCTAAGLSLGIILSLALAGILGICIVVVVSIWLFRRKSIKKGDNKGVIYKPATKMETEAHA
hCA I, sequence (P00915 whole entry): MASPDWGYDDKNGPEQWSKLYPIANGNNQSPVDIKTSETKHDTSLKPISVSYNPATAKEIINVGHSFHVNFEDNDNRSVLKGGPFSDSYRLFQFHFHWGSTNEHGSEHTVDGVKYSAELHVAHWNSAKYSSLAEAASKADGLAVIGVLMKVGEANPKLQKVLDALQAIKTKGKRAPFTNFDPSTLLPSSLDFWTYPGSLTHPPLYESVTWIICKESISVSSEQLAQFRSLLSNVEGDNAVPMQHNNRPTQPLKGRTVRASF

Row | Molecule | Selectivity ratio I/IX [3] | Selectivity ratio II/IX [3] | Selectivity ratio I/XII [4] | Selectivity ratio II/XII [4] | Ki [1] | Ki [2] | Ki [3, 13] | Ki [3, 14] | Ki [4, 15] | Ki [4, 16] | IC50 [5] | IC50 [6] | IC50 [7] | further results
1 | 2–(2-Oxo-3–(2-(2–(4-sulfamoylphenylamino)acetyl)hydrazono)indolin-1-yl)-N-m-tolylacetamide [4d] | 14.824 | 0.797 | 1.412 | 0.076 |  |  |  |  |  |  |  |  |  | Ki [1, 8]: 8510 nM; Ki [2, 9]: 458 nM; log KI hCA IX (experimental) [3, 10]: 2.759; Ki [3, 11]: 574 nM; Log KI hCA XII (experimental) [4, 10]: 3.78; Ki [4, 12]: 6020 nM
2 | NS(=O)(=O)c1ccc(NC(=O)CN2C(=O)C(=O)c3ccccc32)cc1 [2h, 2–(2,3-Dioxoindolin-1-yl)-N-(4-sulfamoylphenyl)acetamide] | 0.673 | 0.087 | 5.701 | 0.742 | 45.1 nM | 5.87 nM | 67 nM | 67 nM | 7.91 nM | 8 nM | > 100000 nM | > 100000 nM | > 100000 nM | cytotoxic activity against MCF-7 [5]: no cytotoxic activity; cytotoxic activity against A549 [6]: no cytotoxic activity
3 | NS(=O)(=O)c1ccc(NN=C2C(=O)N(CC(=O)Nc3ccccc3)c3ccccc32)cc1 [3a, 2–(2-Oxo-3–(2-(4-sulfamoylphenyl)hydrazono)indolin-1-yl)-N-phenylacetamide] | 18.384 | 1.203 | 1.088 | 0.071 | 3970 nM | 260 nM | 216 nM | 216 nM | 3650 nM | 3650 nM |  |  |  | 
4 | NS(=O)(=O)c1ccc(NN=C2C(=O)N(CC(=O)Nc3ccc(Cl)cc3)c3ccccc32)cc1 [3b, N-(4-Chlorophenyl)-2–(2-oxo-3–(2-(4-sulfamoylphenyl)hydrazono)indolin-1-yl)acetamide] | 7.252 | 3.674 | 1.881 | 0.953 | 892 nM | 452 nM | 123 nM | 123 nM | 474 nM | 474 nM |  |  |  | 
5 | NS(=O)(=O)c1ccc(NN=C2C(=O)N(CC(=O)Nc3ccc(Br)cc3)c3ccccc32)cc1 [3c, N-(4-Bromophenyl)-2–(2-oxo-3–(2-(4-sulfamoylphenyl)hydrazono)indolin-1-yl)acetamide] | 13.392 | 0.991 | 1.245 | 0.092 | 762 nM | 56.4 nM | 56.9 nM | 57 nM | 612 nM | 612 nM | > 100000 nM | 5900 nM | > 100000 nM | Selectivity index A549 [6]: > 16.94
6 | Cc1ccc(NC(=O)CN2C(=O)C(=NNc3ccc(S(N)(=O)=O)cc3)c3ccccc32)cc1 [3d, 2–(2-Oxo-3–(2-(4-sulfamoylphenyl)hydrazono)indolin-1-yl)-N-p-tolylacetamide] | 7.672 | 0.934 | 0.923 | 0.112 | 656 nM | 79.9 nM | 85.5 nM | 86.1 nM | 710 nM | 710 nM | 869 nM | 5120 nM | 1460 nM | Selectivity index MCF-7 [5]: 1.68; Selectivity index A549 [6]: 0.28
7 | NS(=O)(=O)c1ccc(NCC(=O)NN=C2C(=O)N(CC(=O)Nc3ccccc3)c3ccccc32)cc1 [4a, 2–(2-Oxo-3–(2-(2–(4-sulfamoylphenylamino)acetyl)hydrazono)indolin-1-yl)-N-phenylacetamide] | 5.741 | 0.995 | 0.683 | 0.118 | 4640 nM | 804 nM | 808 nM | 807 nM | 6790 nM |  |  |  |  | 
8 | NS(=O)(=O)c1ccc(NCC(=O)NN=C2C(=O)N(CC(=O)Nc3ccc(Cl)cc3)c3ccccc32)cc1 [4b, N-(4-Chlorophenyl)-2–(2-oxo-3–(2-(2–(4-sulfamoylphenylamino)acetyl)hydrazono)indolin-1-yl)acetamide] | 2.149 | 1.169 | 1.670 | 0.909 | 8430 nM | 4590 nM | 3920 nM | 3930 nM | 5050 nM | 5050 nM |  |  |  | 
9 | NS(=O)(=O)c1ccc(NCC(=O)NN=C2C(=O)N(CC(=O)Nc3ccccc3Cl)c3ccccc32)cc1 [4f, N-(2-Chlorophenyl)-2–(2-oxo-3–(2-(2–(4-sulfamoylphenylamino)acetyl)hydrazono)indolin-1-yl)acetamide] | 0.819 | 0.554 | 5.823 | 3.937 | 4390 nM | 2970 nM | 5360 nM | 5360 nM | 754 nM | 753 nM |  |  |  | 
10 | NS(=O)(=O)c1ccc(NCC(=O)NN=C2C(=O)N(CC(=O)Nc3ccccc3Br)c3ccccc32)cc1 [4g, N-(2-Bromophenyl)-2–(2-oxo-3–(2-(2–(4-sulfamoylphenylamino)acetyl)hydrazono)indolin-1-yl)acetamide] | 0.829 | 0.272 | 7.221 | 2.373 | 6090 nM | 2000 nM | 7340 nM | 7330 nM | 843 nM | 843 nM |  |  |  | 
11 | COc1cccc2c1C(=O)c1c(O)c3c(c(O)c1C2=O)C[C@@](O)(C(=O)CO)C[C@@H]3O[C@H]1C[C@H](N)[C@H](O)[C@H](C)O1 [Doxorubicin, reference compound] |  |  |  |  |  |  |  |  |  |  | 630 nM | 190 nM | 220 nM | Selectivity index MCF-7 [5]: 0.349; Selectivity index A549 [6]: 1.157
12 | N-(3-Bromophenyl)-2–(2-oxo-3–(2-(2–(4-sulfamoylphenylamino)acetyl)hydrazono) indolin-1-yl)acetamide [4c] | 3.596 | 1.119 | 1.029 | 0.320 |  |  |  |  |  |  |  |  |  | Ki [1, 8]: 2350 nM; Ki [2, 9]: 732 nM; log KI hCA IX (experimental) [3, 10]: 2.816; Ki [3, 11]: 654 nM; Log KI hCA XII (experimental) [4, 10]: 3.359; Ki [4, 12]: 2280 nM
13 | N-(3-Methoxyphenyl)-2–(2-oxo-3–(2-(2–(4-sulfamoylphenylamino)acetyl) hydrazono)indolin-1-yl)acetamide [4e] | 2.957 | 2.133 | 6.122 | 4.416 |  |  |  |  |  |  |  |  |  | Ki [1, 8]: 9320 nM; Ki [2, 9]: 6720 nM; log KI hCA IX (experimental) [3, 10]: 3.498; Ki [3, 11]: 3150 nM; Log KI hCA XII (experimental) [4, 10]: 3.182; Ki [4, 12]: 1520 nM
